Test results: patent US11208412B2 (DAEGU-GYEONGBUK MEDICAL INNOVATION FOUNDATION, priority 2017, dated 2021)

Experiments:
Assay in all cases: Kinase selectivity, DiscoverX scanMAX Kinase assay panel (% control)
Assay type in all cases: binding
[1] = molecular target: T1, kinases of the scanMAX Kinase assay panel (Homo sapiens, UniProt Q8IWQ3); conditions: BRSK2; 1 uM
T1 construct: purchased DiscoverX Co. (contract measurement) scanMAX Kinase assay panel
T1 sequence (Q8IWQ3 1-736): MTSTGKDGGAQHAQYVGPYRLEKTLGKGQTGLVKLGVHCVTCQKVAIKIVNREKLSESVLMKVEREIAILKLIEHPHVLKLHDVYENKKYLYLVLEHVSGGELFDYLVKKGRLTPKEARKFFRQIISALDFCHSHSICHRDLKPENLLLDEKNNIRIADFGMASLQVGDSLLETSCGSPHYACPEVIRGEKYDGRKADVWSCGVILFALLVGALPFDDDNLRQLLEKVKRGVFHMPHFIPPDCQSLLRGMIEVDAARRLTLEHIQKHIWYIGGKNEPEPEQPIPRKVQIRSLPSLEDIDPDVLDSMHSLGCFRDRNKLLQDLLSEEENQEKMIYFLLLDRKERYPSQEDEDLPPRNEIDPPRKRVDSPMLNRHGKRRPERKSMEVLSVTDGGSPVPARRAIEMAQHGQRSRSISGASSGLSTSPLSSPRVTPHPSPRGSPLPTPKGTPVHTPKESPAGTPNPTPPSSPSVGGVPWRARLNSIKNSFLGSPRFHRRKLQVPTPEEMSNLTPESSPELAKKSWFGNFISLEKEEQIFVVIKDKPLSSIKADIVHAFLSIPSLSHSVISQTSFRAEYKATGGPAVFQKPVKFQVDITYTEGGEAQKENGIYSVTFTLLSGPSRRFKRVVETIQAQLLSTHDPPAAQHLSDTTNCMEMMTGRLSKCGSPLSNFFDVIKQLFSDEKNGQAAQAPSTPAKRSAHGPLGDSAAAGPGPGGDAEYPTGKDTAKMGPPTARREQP
Procedure, shortened: (§1)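 Percent of control computed as (compound − positive control)/(negative control − positive control) × 100, DMSO defining 100% and positive control 0%. Each panel kinase exposed to 1 uM compound; values under 35% taken to mean the compound acts on that kinase.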

[2] = molecular target: T2, kinases of the scanMAX Kinase assay panel (Homo sapiens, UniProt Q8NEV4); conditions: MYO3A; 1 uM
T2 construct: purchased DiscoverX Co. (contract measurement) scanMAX Kinase assay panel
Procedure, shortened: as §1

[3] = molecular target: T3, kinases of the scanMAX Kinase assay panel (Homo sapiens, UniProt P49840); conditions: GSK3A; 1 uM
T3 construct: purchased DiscoverX Co. (contract measurement) scanMAX Kinase assay panel
Procedure, shortened: as §1

[4] = molecular target: T4, kinases of the scanMAX Kinase assay panel (Homo sapiens, UniProt Q99683); conditions: ASK1; 1 uM
T4 construct: purchased DiscoverX Co. (contract measurement) scanMAX Kinase assay panel
T4 sequence (Q99683 1-1374): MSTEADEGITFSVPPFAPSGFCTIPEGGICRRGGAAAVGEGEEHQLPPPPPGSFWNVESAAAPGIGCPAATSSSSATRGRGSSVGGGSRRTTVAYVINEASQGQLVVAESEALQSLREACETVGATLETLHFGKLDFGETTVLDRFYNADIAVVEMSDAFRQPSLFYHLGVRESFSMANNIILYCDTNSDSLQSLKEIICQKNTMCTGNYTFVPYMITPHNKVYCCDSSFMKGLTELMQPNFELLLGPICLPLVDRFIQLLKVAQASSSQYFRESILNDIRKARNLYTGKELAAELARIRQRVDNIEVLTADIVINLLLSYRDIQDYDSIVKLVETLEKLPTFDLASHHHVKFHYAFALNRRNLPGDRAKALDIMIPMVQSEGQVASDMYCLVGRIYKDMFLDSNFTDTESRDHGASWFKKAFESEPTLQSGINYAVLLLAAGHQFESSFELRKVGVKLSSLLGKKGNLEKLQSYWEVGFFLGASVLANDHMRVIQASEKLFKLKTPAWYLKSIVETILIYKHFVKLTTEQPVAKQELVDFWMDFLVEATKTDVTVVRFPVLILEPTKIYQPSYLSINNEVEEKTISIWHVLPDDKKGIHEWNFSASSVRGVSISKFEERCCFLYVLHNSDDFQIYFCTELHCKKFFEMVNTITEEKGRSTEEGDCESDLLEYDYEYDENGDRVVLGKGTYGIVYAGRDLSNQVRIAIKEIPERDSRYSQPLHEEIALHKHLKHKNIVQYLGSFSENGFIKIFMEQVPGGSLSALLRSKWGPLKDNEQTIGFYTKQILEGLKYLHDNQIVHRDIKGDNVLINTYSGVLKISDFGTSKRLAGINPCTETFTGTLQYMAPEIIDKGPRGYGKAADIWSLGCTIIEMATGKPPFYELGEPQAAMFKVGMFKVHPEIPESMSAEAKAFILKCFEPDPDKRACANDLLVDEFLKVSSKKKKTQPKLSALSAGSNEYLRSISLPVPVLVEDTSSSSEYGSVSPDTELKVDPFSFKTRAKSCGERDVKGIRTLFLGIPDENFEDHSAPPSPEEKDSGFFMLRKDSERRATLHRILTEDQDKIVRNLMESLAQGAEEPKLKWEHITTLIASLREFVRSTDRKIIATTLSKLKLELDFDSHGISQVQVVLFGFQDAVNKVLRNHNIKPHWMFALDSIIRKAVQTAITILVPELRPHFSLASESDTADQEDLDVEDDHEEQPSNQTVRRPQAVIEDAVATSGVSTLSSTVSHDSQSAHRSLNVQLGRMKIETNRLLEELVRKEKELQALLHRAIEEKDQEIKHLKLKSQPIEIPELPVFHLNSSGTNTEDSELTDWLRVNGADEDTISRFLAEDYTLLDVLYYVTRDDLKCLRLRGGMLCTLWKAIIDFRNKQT
Procedure, shortened: as §1

[5] = molecular target: T5, kinases of the scanMAX Kinase assay panel (Homo sapiens, UniProt Q86YV6); conditions: MYLK4; 1 uM
T5 construct: purchased DiscoverX Co. (contract measurement) scanMAX Kinase assay panel
T5 sequence (Q86YV6 1-388): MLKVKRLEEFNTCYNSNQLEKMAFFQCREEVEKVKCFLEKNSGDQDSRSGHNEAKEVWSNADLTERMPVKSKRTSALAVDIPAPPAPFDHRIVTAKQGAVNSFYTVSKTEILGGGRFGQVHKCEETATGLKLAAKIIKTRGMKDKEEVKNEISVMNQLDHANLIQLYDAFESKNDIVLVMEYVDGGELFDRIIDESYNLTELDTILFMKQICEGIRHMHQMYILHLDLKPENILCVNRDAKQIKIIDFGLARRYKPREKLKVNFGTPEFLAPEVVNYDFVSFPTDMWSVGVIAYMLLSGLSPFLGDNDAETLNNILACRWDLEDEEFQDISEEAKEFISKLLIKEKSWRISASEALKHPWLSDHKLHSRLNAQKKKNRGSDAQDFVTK
Procedure, shortened: as §1

T3 sequence (P49840 whole entry): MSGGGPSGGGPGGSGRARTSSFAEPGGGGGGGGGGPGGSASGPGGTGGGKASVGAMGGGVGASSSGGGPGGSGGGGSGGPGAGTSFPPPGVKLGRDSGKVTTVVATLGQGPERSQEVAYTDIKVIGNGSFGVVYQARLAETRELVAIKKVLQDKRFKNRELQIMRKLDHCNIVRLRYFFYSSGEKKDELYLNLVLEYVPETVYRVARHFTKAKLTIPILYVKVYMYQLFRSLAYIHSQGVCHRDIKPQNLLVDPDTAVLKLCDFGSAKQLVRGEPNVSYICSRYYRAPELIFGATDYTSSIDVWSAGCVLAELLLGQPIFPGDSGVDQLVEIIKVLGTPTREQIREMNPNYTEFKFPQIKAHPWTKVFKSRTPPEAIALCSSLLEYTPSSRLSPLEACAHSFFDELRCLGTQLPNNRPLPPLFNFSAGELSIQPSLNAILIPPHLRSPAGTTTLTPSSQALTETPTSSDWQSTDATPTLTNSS
T2 sequence (Q8NEV4 whole entry): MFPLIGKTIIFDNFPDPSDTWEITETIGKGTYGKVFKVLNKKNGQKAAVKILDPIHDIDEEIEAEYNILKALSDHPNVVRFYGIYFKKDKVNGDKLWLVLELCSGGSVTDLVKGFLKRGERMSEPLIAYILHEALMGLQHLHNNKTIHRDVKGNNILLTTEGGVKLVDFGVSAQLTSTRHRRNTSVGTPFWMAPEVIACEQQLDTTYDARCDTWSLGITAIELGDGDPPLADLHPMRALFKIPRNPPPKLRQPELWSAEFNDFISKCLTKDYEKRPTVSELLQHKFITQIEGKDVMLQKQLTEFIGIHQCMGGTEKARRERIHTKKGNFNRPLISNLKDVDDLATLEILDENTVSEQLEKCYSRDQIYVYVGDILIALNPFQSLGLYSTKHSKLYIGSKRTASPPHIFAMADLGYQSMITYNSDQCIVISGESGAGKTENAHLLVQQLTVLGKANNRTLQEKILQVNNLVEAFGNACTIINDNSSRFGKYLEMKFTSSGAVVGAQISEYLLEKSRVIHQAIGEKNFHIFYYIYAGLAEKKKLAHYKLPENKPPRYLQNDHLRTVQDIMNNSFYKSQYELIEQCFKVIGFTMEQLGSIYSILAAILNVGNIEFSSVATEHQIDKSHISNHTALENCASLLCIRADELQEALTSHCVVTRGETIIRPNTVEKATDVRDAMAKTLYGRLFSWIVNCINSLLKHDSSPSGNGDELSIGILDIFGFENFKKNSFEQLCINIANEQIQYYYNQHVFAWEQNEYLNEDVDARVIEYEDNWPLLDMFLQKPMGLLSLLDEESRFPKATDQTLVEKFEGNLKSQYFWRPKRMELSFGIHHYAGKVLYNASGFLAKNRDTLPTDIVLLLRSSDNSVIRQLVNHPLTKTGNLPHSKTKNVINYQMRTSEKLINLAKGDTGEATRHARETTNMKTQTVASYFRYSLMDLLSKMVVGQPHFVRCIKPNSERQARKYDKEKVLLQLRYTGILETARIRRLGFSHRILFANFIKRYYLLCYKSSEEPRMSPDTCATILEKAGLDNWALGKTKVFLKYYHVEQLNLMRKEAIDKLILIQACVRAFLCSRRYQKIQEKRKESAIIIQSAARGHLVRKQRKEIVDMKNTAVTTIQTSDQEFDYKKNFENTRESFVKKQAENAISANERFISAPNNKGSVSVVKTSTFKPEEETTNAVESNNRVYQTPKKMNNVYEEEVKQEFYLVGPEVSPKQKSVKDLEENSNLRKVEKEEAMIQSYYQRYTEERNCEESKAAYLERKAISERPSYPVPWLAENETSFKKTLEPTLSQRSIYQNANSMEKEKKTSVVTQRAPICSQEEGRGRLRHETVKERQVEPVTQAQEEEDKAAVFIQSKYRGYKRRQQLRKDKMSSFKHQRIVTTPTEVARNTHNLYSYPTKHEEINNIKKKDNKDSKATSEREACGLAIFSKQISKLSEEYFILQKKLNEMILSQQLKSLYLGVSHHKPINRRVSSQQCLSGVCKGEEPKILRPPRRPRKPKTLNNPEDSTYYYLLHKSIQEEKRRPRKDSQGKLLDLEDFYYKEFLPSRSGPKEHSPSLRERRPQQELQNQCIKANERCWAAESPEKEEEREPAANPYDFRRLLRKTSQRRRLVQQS

| SMILES | remaining binding at 1 µM [1] | remaining binding at 1 µM [2] | remaining binding at 1 µM [3] | remaining binding at 1 µM [4] | remaining binding at 1 µM [5] |
| --- | --- | --- | --- | --- | --- |
| CCNc1nc(Nc2ccc(C(=O)N3CCC(N4CCOCC4)CC3)cc2OC)nc2[nH]cc(C(F)(F)F)c12 [Example 104, (4-((4-(ethylamino)-5-(trifluoromethyl)-7H-pyrrolo[2,3-d]pyrimidine-2-yl)amino)-3-methoxyphenyl)(4-morpholinopiperidine-1-yl)methanone] | 100% | 78% | 100% | 82% | 89% |
| CC1(Nc2nc(Nc3cnn([C@H]4CCN(C5COC5)C[C@@H]4F)c3Cl)nc3[nH]cc(C#N)c23)CC1 [Example 52, 2-((5-chloro-1-((3S,4S)-3-fluoro-1-(oxetane-3-yl)piperidine-4-yl)-1H-pyrazole-4-yl)amino)((1-methylcyclopropyl)amino)-7H-pyrrolo[2,3-d]pyrimidine-5-carbonitrile] | 70% | 3.9% | 12% | 1.8% | 82% |
| CNc1nc(Nc2ccc(C(=O)N3CCOCC3)cc2OC)nc2[nH]cc(C#N)c12 [Example 1, 2-((2-methoxy-4-(morpholine-4-carbonyl)phenyl)amino)-4-(methylamino)-7H-pyrrolo[2,3-d]pyrimidine-5-carbonitrile] | 89% | 68% | 100% | 57% | 90% |
